From a melting point compilation (Tetko et al.; mined from patent text by program, amines drawn as free bases though some values may be those of a salt)

Row | Structure (SMILES) | melting point [°C]
1 | CC(C)OC(=O)C1CCCn2c(C(=O)c3ccc(F)cc3)ccc21 (configuration not stated) | 92
2 | Cc1c(-c2ccncn2)nc2n(c1=O)CCCN2CC(=O)c1ccccc1 | 184 to 185
3 | CCOC(=O)C(=CNc1ccnn1Cc1ccco1)C(=O)OCC | 84 to 86
4 | CC(O)c1ccc(C(O)C(C)(C)C)cc1 (configuration not stated) | 118 to 121
5 | C=CCNC(=O)c1cc(Cl)c2[nH]ncc2n1 | 121 to 125
6 | Cc1[nH]cnc1/C=C1\CCCc2c(c3ccccc3n2C)C1=O | 230 to 232
7 | CC(C)C(=O)N(O)C(c1ccccc1)c1cc(C(C)(C)C)c(O)c(C(C)(C)C)c1 (configuration not stated) | 179 to 180
8 | CC(=O)Nc1ccccc1Oc1cc2c(=O)ccoc2cc1NS(C)(=O)=O | 130 to 132
9 | CCOC(=O)C1=C(C)N=C(OC)N(C(=O)OCC)C1c1cccc([N+](=O)[O-])c1 (configuration not stated) | 61.5 to 64.5
10 | CC(C)COC(=O)N[C@@H](CC(C)C)C(=O)N[C@@H](Cc1ccccc1)C(=O)CSCc1ccco1 | 89 to 90
11 | COc1ccc([N+](=O)[O-])cc1NC(=O)CC(=O)C1(C)COC(C)(C)OC1 | 113 to 115
12 | OCC1CCn2c(cc3ccccc32)C1 (configuration not stated) | 110 to 111
13 | CCCOc1cc(F)cc2c1c(CCN(C)C)cn2CC | 68.9 to 70.1
14 | CC(=O)ON1C(C)(C)CC(OC(=O)c2ccccc2C(=O)OC2CC(C)(C)N(OC(C)=O)C(C)(C)C2)CC1(C)C | 172 to 175
15 | CN1CCc2cc(Br)[nH]c2C(c2ccccc2)C1 (configuration not stated) | 132 to 133
16 | O=S(=O)(Oc1cccc(OS(=O)(=O)C(F)(F)F)c1OS(=O)(=O)C(F)(F)F)C(F)(F)F | 47.5 to 48.5
17 | NC(=O)c1csc2ccc([N+](=O)[O-])cc12 | 243 to 250
18 | CC12CCC(C1)C1(C)Oc3ccc(C(=O)/C=C/c4cc(C(=O)O)cs4)cc3C21C (configuration not stated) | 226 to 228
19 | COC(=O)COc1cccc2c1CCC(CC(=O)CBr)C2 (configuration not stated) | 77 to 78
20 | CCOC(=O)[C@H](Cc1ccc(O)cc1)NC(=O)C(C)(C)NC(=O)[C@@H](SC(C)=O)C(C)C | 137 to 138
21 | COc1ccc(C2=NN(C)C(=O)[C@H]3CCCC[C@@H]23)cc1OC (relative stereo) | 110 to 112

Row | Structure (SMILES) | melting point [°C]
22 | CNCCc1c(C)[nH]c2ccc(S(=O)(=O)c3ccccc3)cc12 | 165 to 166
23 | CC(=O)OCC(C)C1CCC2C3CC=C4CC(OC(C)=O)CCC4(C)C3CCC12C (configuration not stated) | 125 to 127
24 | N#CN=C1SCCN1Cc1c(Cl)ccc(C(=O)O)c1Cl | 208
25 | CCCC(CCCCNC(=O)c1cc2ccc(C3OC(CO)C(O)C(O)C3O)cc2oc1=O)C(=O)O (configuration not stated) | 162
26 | Nc1ccc(CC(=O)N2CCCC2)cc1N | 105 to 108
27 | CC(Cc1c[nH]c2ccccc12)(NC(=O)OC1C2CC3CC(C2)CC1C3)C(=O)NCCc1cnccn1 (configuration not stated) | 97 to 101
28 | CCCCCCCCCN(CCCCC)CCC(=O)O | 168 to 176
29 | O=C(O)C1CCCc2c(noc2-c2ccc(Cl)cc2)C1 (configuration not stated) | 231 to 233
30 | CC(C)c1c(Cl)nc(NC=O)nc1Cl | 95 to 96
31 | CC1=C(C(=O)N(C)C)C(c2ccccc2)C(C(N)=O)=C(N)N1 (configuration not stated) | 236
32 | O=C(O)[C@@H]1CCCN1C(=O)CCBr | 83 to 85
33 | O=C(O)CCCCCCc1cncc2ccccc12 | 108 to 109
34 | O=C1OC(CCc2ccccc2)(c2ccccc2)CC(O)=C1SCc1cccc2ccccc12 (configuration not stated) | 132 to 134
35 | COC(=O)C(=C/c1ccccc1)/C(=C\c1cc(OC)c(OC)c(OC)c1)C(N)=O | 121 to 122
36 | CCOc1cc2c(c3c1OC(C)(C)C3)C(c1cccc(C(=O)NC)c1)=NC(C)(C)C2 | 173 to 174
37 | COc1c(C)cc(N2CCN(c3ccc([N+](=O)[O-])cc3)CC2)cc1C | 135
38 | COc1cc(N)ccc1-c1cnn(C)c1 | 129 to 131
39 | O=C1C2=C(CCCC2)C(=O)N1c1c(F)cc(F)cc1F | 91 to 92
40 | CCOc1cc(-c2cnc3[nH]cc(C(=O)C(C)(C)C)c3n2)cc(N2CCCC2)c1 | 236 to 237
41 | COc1cc2c(c(OC)c1OC)C(C)(C)CC(C=O)=C2 | 178 to 180
42 | CCCCCCCCCCCCCCCCCCOc1cc(NC(=O)OCc2ccccc2)cc(OCCCOc2ccccc2)c1 | 68 to 69

Row | Structure (SMILES) | melting point [°C]
43 | O=[N+]([O-])C=C1SCCCN1S(=O)(=O)Cc1ccccc1 | 140 to 141
44 | Nc1nc2c(s1)CCN(CC=Cc1ccccc1F)CC2 | 96 to 102
45 | CCCn1cc(C(=O)Nc2nccs2)c2ccc(Cl)cc21 | 175 to 176
46 | COC(=O)C12COc3cc(C(F)(F)F)ccc3C1=NN(C(=O)Nc1ccc(Br)cn1)C2 (configuration not stated) | 179 to 181
47 | CN(C)c1cc2c(cc1Cl)NC(=O)CC(c1cccc(-c3csc(CO)n3)c1)=N2 | 176 to 178
48 | Cn1c(=O)c(-c2c(Cl)cccc2Cl)cc2cnc(NCCCN3CCOCC3)nc21 | 140 to 142
49 | CC(C)Oc1nc(-n2cccn2)nc(Cl)c1-c1c(F)cc(F)cc1F | 106 to 107
50 | Cc1cc(C2=NNC(=O)SC2C)cc2c1NC(=O)C2(C)C (configuration not stated) | 260
51 | O=C(C(=O)N1CCC(N2CCCCC2)CC1)c1ccc2n1Cc1ccccc1N(C(=O)c1ccc(C3CCCCC3)cc1)C2 | 190 to 195
52 | CCOc1cc(OCC(=O)O)cc2c1C(=O)N(COC(=O)c1c(Cl)cccc1Cl)S2(=O)=O | 179 to 180
53 | COc1c(O)c(C)c(CN2CCOCC2)c(O)c1OC | 127 to 130
54 | CC(C)(C)c1cc(CC=Cc2ccccc2)cc(C(C)(C)C)c1O | 93
55 | CONC1=NS(=O)(=O)c2cc(Cl)ccc2N1 | > 220
56 | ClC1=Nc2ccccc2Oc2cscc21 | 215 to 217
57 | O=C(Nc1ccc(C(=O)N2CCCCc3ccccc32)cc1)c1ccccc1OCCCCCCN1C(=O)c2ccccc2C1=O | 145 to 146
58 | O=C1NC(=O)c2c1c(-c1c(Cl)cccc1Cl)cc1c2c2cc(O)ccc2n1CCCBr | 273 to 276
59 | Nc1cc(C(=O)c2ccccc2)ccc1N1CCOCC1 | 138
60 | N#Cc1cnc2sc(Br)cc2c1Cl | 158 to 166
61 | COC(=O)CCn1cc(C)c(=O)[nH]c1=O | 112 to 119
62 | Sc1c(Br)cc(Br)cc1Br | 114 to 116
63 | CC(=O)N(C(C)=O)c1nc2n(n1)Cc1ccccc1-2 | 174 to 176

Second part, the compound after the results:

Row | melting point [°C] | Structure (SMILES)
64 | 211 | CC(C)n1cc(-c2nc(C#N)c(N)nc2-c2ccccc2F)ccc1=O
65 | 122 | CCOC(=O)C(=CN(C)C)C(=O)c1cc2cc(F)c(Cl)cc2nc1Cl
66 | 264 to 265 | FC(F)(F)c1n[nH]c2c1nc(-c1ccccc1)c1ccccc12
67 | 226 | COc1cc(OC)c(C(=O)CCCCN2CCC3(CC2)NC(=O)NC3=O)cc1NS(=O)(=O)c1ccc(C(F)(F)F)cc1
68 | 72 to 73 | Cc1onc(-c2ccc(C(F)(F)F)cc2)c1CO
69 | 151 to 154 | CCCCNCC(O)COc1ccc(-c2nc(C(F)(F)F)c[nH]2)cc1 (configuration not stated)
70 | 146 to 148 | CCOc1ccc(-c2ccc3c(c2)C=C(C(=O)Nc2ccc(CN(C)C4CCC(=O)CC4)cc2)CCO3)cc1
71 | 185 to 187 | CC(=O)N(O)C(C)c1ccccc1Nc1c(Cl)ccc(C)c1Cl (configuration not stated)
72 | 95 to 98 | CN(Cc1ccccc1)c1cc(C#N)ccc1C1NC(=O)NC1=O (configuration not stated)
73 | 79 to 82 | O=C1c2ccccc2C(=O)N1Cc1ncc(/C=C/C(c2cc(Cl)c(Cl)c(Cl)c2)C(F)(F)F)cc1Cl (configuration not stated)
74 | 325 to 327 | O=c1[nH]c2ccc(Cl)cc2c2c1[nH]c1ccccc12
75 | 133 | CCOC(=O)C(C)Oc1ccc2ccc(Oc3cc(-n4c(=O)cc(C(F)(F)F)n(C)c4=O)c(F)cc3C#N)cc2c1 (configuration not stated)
76 | 111 to 112 | Cc1ccccc1OCCCc1oc(-n2ccnc2C)nc1-c1ccc(Cl)cc1
77 | 128 to 129 | COC(=O)c1cccc(NC(=O)c2ccc(OC)c(Nc3cccc(C(F)(F)F)c3)c2)c1
78 | 198 to 200 | COc1ccc(C)cc1NC(=O)Nc1ccc(N2CCN(C(=O)Nc3ccc(OCCO)cc3C(F)(F)F)CC2)nc1
79 | 46 to 49 | COC(=O)Cc1ccc(OCCNC(=O)C2Cc3ccccc3N2S(=O)(=O)c2ccc(-c3cc(C(F)(F)F)ccc3C)cc2)cc1 (configuration not stated)
80 | 129 to 130 | O=C1c2ccccc2C(=O)N1CCON1CCNC1=Nc1c(Cl)cccc1Cl

Row | melting point [°C] | Structure (SMILES)
81 | 98 to 99 | Cc1cc(Oc2ncc(C(F)(F)F)cc2Cl)nn1C(=O)NC1CC1
82 | 152 | COc1ccc(-c2nc(Oc3ccc(C)cc3)ncc2C(=O)N2CCOCC2)cc1OC
83 | 156 to 157 | CC(C)=COc1ccc2c(C)cc(=O)oc2c1C(=O)C=Cc1cccnc1
84 | 198 to 215 | CCc1ccc2sc3cc(C#N)ccc3c(=O)c2c1
85 | 144 to 146 | Cc1oc(-c2ccc(C(F)(F)F)cc2)nc1CCOc1ccc(CN(O)C(N)=O)cc1F
86 | 215 to 216 | O=C(Nc1cccnn1)N1CCN(c2nc(-c3cccc(F)c3F)cs2)CC1
87 | 90 to 91 | Cc1cc(C2=NOC(O)(C(F)(F)F)C2Cl)c(F)cc1Cl (configuration not stated)
88 | 186 to 189 | Cc1nn(-c2ccc(Cl)cc2)cc1C(=O)N(CC(=O)O)c1ccc(OCC(C)(C)C)c(C#N)c1
89 | 97 | c1ccc(COc2cc3ccncc3cc2OCc2ccccc2)cc1
90 | 267 to 270 | CC(C)Oc1ccc(-c2[nH]c(-c3ccc([N+](=O)[O-])cc3)nc2C(=O)Nc2nccs2)cc1
91 | 157 to 158 | CCOc1ccc2c(c1)c(-c1ccc3c(c1)OCO3)c(C(=O)OC)c(=O)n2Cc1ccccc1OC
92 | 145 to 147 | CCCC1=C(C(=O)OCC)C(c2ccccc2Cl)c2cn(C(=O)Nc3ccccc3)nc2N1 (configuration not stated)
93 | 178 | COc1cccc(C(=O)Nc2ccc3ccc(Cl)nc3n2)c1
94 | 120 to 123 | COc1ccc(-c2cccc3c2OC(COS(=O)(=O)c2ccc(C)cc2)C3)c(OC)c1 (configuration not stated)
95 | 109 to 110 | O=C(c1ccc([N+](=O)[O-])cc1)N1CCN(CCc2ccc(Cl)cc2)CC1
96 | 185 to 186 | O=c1oc(-c2ccc(Cl)c(Cl)c2)cc(O)c1SCc1ccccc1
97 | 120 to 122 | CCNC(=O)NCC(CO)c1cccc2ccc(OC)cc12 (configuration not stated)
